In article PMC10454678, “Synthesis of hydroxy benzoin/benzil analogs and investigation of their antioxidant, antimicrobial, enzyme inhibition, and cytotoxic activities” (Turkish Journal of Chemistry, 2021):
Converted amounts (≈) assume the structure as drawn. Where two headings read alike, the source gives them in different places.

Assays:
[1] = test system: Yersinia pseudotuberculosis ATCC911; assay: microbe, parasite or virus in culture; format: cell-based; conditions: Yersinia pseudotuberculosis, ATCC911, read-out: MIC Yp
[2] = test system: Pseudomonas aeruginosa ATCC27853; assay: MIC, microdilution, P. aeruginosa; format: cell-based; conditions: Pseudomonas aeruginosa, ATCC27853; Gram (-); Mueller-Hinton broth, 18-24 h, 36 °C; read-out: MIC Pa
[3] = test system: Enterococcus faecalis ATCC29212; assay: MIC, microdilution, E. faecalis; format: cell-based; conditions: Enterococcus faecalis, ATCC29212; Gram (+); Mueller-Hinton broth, 18-24 h, 36 °C; read-out: MIC Ef
[4] = test system: Escherichia coli ATCC 25922; assay: MIC, microdilution, E. coli; format: cell-based; conditions: Escherichia coli
[5] = test system: Staphylococcus aureus ATCC25923; assay: MIC, microdilution, S. aureus; format: cell-based; conditions: Staphylococcus aureus, ATCC25923; Gram (+); Mueller-Hinton broth, 18-24 h, 36 °C; read-out: MIC Sa
[6] = DPPH radical scavenging activity; conditions: 0.1 mM DPPH, 50 min dark, 517 nm
[7] = biological target: α-glucosidase; assay: α-Glucosidase inhibition; format: biochemical; conditions: PNPG, pH 6.8, 37 °C, 400 nm
Procedure: It was incubated at 37 °C for 15 min. Similarly, an enzyme-free blank was prepared. The reaction was stopped when sodium carbonate (50 μL, 0.2 M) was added.

[8] = biological target: acetylcholinesterase (Homo sapiens, UniProt P22303); assay: biochemical; conditions: Tris-HCl pH 8.0, 25 °C, 405 nm; read-out: AChE IC50 (converted)
[9] = Ferric reducing antioxidant power (FRAP) assay; conditions: Trolox equivalents; compounds 2 mg/mL, 30 °C 30 min, 595 nm
[10] = Copper ions reducing activity (CUPRAC); conditions: Trolox equivalents; 30 min dark, room temperature, 450 nm
[11] = test system: Candida albicans ATCC60193; assay: MIC, microdilution, C. albicans; format: cell-based; conditions: Candida albicans, ATCC60193; fungus; YEPD broth, 48 h, 36 °C; read-out: MIC Ca
[12] = test system: Bacillus cereus Roma709; assay: MIC, microdilution, B. cereus; format: cell-based; conditions: Bacillus cereus
[13] = biological target: butyrylcholinesterase (Homo sapiens, UniProt P06276); assay: biochemical; conditions: Tris-HCl pH 8.0, 25 °C, 405 nm; read-out: BChE IC50 (converted)
[14] = test system: Mycobacterium smegmatis ATCC607; assay: MIC, microdilution, M. smegmatis; format: cell-based; conditions: for MIC: Mycolicibacterium smegmatis, ATCC607, 72 h
[15] = ATCC25922, Gram (-), Mueller-Hinton broth, 18-24 h, 36 °C, read-out: MIC Ec
[16] = Tub., BHI broth, 36 °C, read-out: MIC Ms

Chain of butyrylcholinesterase (P06276 29-602): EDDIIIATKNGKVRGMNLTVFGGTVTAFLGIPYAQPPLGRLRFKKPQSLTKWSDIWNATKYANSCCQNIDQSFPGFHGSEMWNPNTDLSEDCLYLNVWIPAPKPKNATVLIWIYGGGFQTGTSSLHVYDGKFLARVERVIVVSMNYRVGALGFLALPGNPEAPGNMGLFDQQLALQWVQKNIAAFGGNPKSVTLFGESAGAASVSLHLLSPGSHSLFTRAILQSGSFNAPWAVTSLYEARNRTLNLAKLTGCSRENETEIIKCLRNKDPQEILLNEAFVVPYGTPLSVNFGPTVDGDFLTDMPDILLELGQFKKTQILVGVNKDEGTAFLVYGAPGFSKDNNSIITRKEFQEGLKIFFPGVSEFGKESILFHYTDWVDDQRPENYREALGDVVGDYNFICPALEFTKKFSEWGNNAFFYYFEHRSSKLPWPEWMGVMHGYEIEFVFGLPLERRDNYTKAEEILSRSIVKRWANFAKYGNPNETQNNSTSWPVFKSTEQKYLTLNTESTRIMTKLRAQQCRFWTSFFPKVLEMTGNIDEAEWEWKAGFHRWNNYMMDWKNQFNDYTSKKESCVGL
Chain of acetylcholinesterase (P22303 32-614, species assumed): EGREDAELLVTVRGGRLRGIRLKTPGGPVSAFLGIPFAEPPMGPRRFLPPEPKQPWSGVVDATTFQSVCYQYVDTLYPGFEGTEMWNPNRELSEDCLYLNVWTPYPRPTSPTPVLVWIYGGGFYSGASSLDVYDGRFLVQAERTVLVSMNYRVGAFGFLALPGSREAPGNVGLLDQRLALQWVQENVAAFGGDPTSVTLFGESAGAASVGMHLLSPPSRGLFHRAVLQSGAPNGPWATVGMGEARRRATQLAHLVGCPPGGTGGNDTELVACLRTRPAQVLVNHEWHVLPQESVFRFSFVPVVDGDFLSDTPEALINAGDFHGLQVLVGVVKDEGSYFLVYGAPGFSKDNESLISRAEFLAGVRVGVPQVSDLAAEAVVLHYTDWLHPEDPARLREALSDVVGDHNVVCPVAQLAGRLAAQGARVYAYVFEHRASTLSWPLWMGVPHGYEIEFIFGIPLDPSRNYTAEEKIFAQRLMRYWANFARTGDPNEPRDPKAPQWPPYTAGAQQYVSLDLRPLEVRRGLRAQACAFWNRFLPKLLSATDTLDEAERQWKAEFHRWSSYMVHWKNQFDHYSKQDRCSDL

SMILES	MIC [1] [µg/mL]	MIC [2] [µg/mL]	MIC [3] [µg/mL]	MIC [4, 15] [µg/mL]	MIC [5] [µg/mL]	DPPH radical scavenging capacity (SC50) [6] [mg/mL]	α-Glucosidase IC50 [7] [µg/mL]	IC50 [8] [µM]	FRAP, the iron reducing antioxidant power [9] [μg/mL trolox/gram DW]	CUPRAC, copper reducing antioxidant power [10] [μg/mL trolox/gram DW]	MIC [11] [µg/mL]	MIC ([12]; ROMA709, read-out: MIC Bc) [µg/mL]	IC50 [13] [µM]	MIC [14, 16] [µg/mL]	MIC ([12]; ROMA709, Gram (+), Mueller-Hinton broth, 18-24 h, 36 °C, read-out: MIC Bc) [µg/mL]	MIC Ms ([14]; Tub., BHI broth, 72 h, 36 °C) [µg/mL]	MIC ([4]; ATCC25922, read-out: MIC Ec) [µg/mL]	MIC ([14]; read-out: MIC Ms, Tub., BHI broth, 36 °C) [µg/mL]
CC1(C)S[C@@H]2[C@H](NC(=O)[C@H](N)c3ccccc3)C(=O)N2[C@H]1C(=O)O [Amp., Ampicillin, reference compound]	18 (≈ 51.5 µM)	> 128	10 (≈ 28.6 µM)	10 (≈ 28.6 µM)	35 (≈ 100 µM)	–	–	–	–	–	–	–	–	–	–	–	–	–
Cc1cc(C(C)(C)C)c(O)c(C(C)(C)C)c1 [BHT, di-t-butylhydroxytoluene, reference compound]	–	–	–	–	–	6.47 ± 0.12	–	–	–	–	–	–	–	–	–	–	–	–
O=C(c1cccc(O)c1)C(O)c1ccccc1 (centres unmarked) [Compound 1, 2-Hydroxy-1-(3-hydroxyphenyl)-2-phenylethanone]	1320 (≈ 5780 µM)	–	–	330 (≈ 1450 µM)	–	15.21 ± 2.1	58.16	> 4380	1238 ± 34.7	738.33 ± 12.5	330 (≈ 1450 µM)	1320 (≈ 5780 µM)	1890	165 (≈ 723 µM)	–	–	–	–
O=C(C(=O)c1cc(O)cc(O)c1)c1ccccc1 [Compound 10, 1-(3,5-Dihydroxyphenyl)-2-phenylethane-1,2-dione]	65 (≈ 268 µM)	32 (≈ 132 µM)	–	17 (≈ 70.2 µM)	65 (≈ 268 µM)	52.10 ± 0.4	100.08	161	1830 ± 44.8	455.00 ± 10.1	17 (≈ 70.2 µM)	–	> 4130	9 to 18 (≈ 37.2 to 74.3 µM)	17 (≈ 70.2 µM)	17 (≈ 70.2 µM)	–	–
O=C(C(=O)c1cc(O)cc(O)c1)c1cc(O)cc(O)c1 [Compound 14, 1,2-Bis(3,5-dihydroxyphenyl)ethane-1,2-dione]	102 (≈ 372 µM)	51 (≈ 186 µM)	51 (≈ 186 µM)	–	–	7.38 ± 1.0	87.10	257	1974 ± 76.9	133.33 ± 10.9	51 (≈ 186 µM)	102 (≈ 372 µM)	> 3650	51 (≈ 186 µM)	–	–	102 (≈ 372 µM)	–
O=C(c1cccc(OC2O[C@H](CO)[C@@H](O)[C@H](O)[C@H]2O)c1)C(O)c1ccccc1 (stereo partly drawn) [Compound 15, 2-Hydroxy-1-(3-O-β -D-glucopyranosylphenyl)-2-phenylethanone]	–	–	–	–	–	–	>1000	30.7	2311.04 ± 31.21	141.74 ±28.35	25 (≈ 64 µM)	–	> 2560	–	–	–	–	–
O=C(c1ccc(OC2O[C@H](CO)[C@@H](O)[C@H](O)[C@H]2O)cc1)C(O)c1ccccc1 (stereo partly drawn) [Compound 16, 2-Hydroxy-1-(4-O-β -D-glucopyranosylphenyl)-2-phenylethanone]	–	–	–	–	–	44.75 ± 3.04	>1000	399	1956.25 ± 48.13	73.54 ± 17.36	–	–	484	–	–	–	–	–
O=C(c1cc(OC2O[C@H](CO)[C@@H](O)[C@H](O)[C@H]2O)cc(OC2O[C@H](CO)[C@@H](O)[C@H](O)[C@H]2O)c1)C(O)c1ccccc1 (stereo partly drawn) [Compound 17, 2-Hydroxy-1-(3,5-Di-O-β -D-glucopyranosylphenyl)-2-phenylethanone]	–	–	–	–	–	8.22 ± 1.08	193.40	> 1760	2647.92 ± 31.92	287.40 ± 9.81	–	–	> 1760	–	–	–	–	–
O=C(c1ccc(OC2O[C@H](CO)[C@@H](O)[C@H](O)[C@H]2O)cc1)C(O)c1cccc(OC2O[C@H](CO)[C@@H](O)[C@H](O)[C@H]2O)c1 (stereo partly drawn) [Compound 19, 2-Hydroxy-1-(4-O-β -D-glucopyranosylphenyl)-2-(3-O-β -D-glucopyranosyl-phenyl)ethanone]	–	–	–	–	–	8.86 ± 0.37	124.94	18.5	2612.50 ± 37.04	421.74 ± 24.39	–	–	> 1760	–	–	–	–	–
O=C(c1cc(OC2O[C@H](CO)[C@@H](O)[C@H](O)[C@H]2O)cc(OC2O[C@H](CO)[C@@H](O)[C@H](O)[C@H]2O)c1)C(O)c1cccc(OC2O[C@H](CO)[C@@H](O)[C@H](O)[C@H]2O)c1 (stereo partly drawn) [Compound 20, 2-Hydroxy-1-(3,5-di-O-β -D-glucopyranosylphenyl)-2-(3-O-β -D-glucopyranosylphenyl)ethanone]	–	–	–	–	–	7.78 ± 0.12	48.25	> 1340	2918.75±36.14	775.58±12.34	–	–	254	–	–	–	–	–
O=C(C(=O)c1cc(OC2O[C@H](CO)[C@@H](O)[C@H](O)[C@H]2O)cc(OC2O[C@H](CO)[C@@H](O)[C@H](O)[C@H]2O)c1)c1ccccc1 (stereo partly drawn) [Compound 23, 1-(3,5-Di-O-β -D-glucopyranosylphenyl)-2-phenylethane-1,2-dione]	–	–	–	–	–	17.74 ± 0.35	>1000	124	2267.50 ± 24.14	273.67 ± 27.23	–	–	> 1770	–	–	–	–	–
O=C(C(=O)c1cccc(OC2O[C@H](CO)[C@@H](O)[C@H](O)[C@H]2O)c1)c1cccc(O)c1 (stereo partly drawn) [Compound 24, 1-(3-O-β -D-Glucopyranosylphenyl)-2-(3-hydroxyphenyl)ethane-1,2-dione]	–	–	–	–	–	25.40 ± 0.19	58.90	697	2401.25 ± 56.34	251.46 ± 43.08	–	–	526	–	–	–	–	15 (≈ 37.1 µM)
OC(Cn1cncn1)(Cn1cncn1)c1ccc(F)cc1F [Flu., Fluconazole, reference compound]	–	–	–	–	–	–	–	–	–	–	< 8	–	–	–	–	–	–	–
[H]/N=C(/N)N[C@H]1[C@H](O)[C@@H](O)[C@H](O[C@@H]2O[C@@H](C)[C@](O)(C=O)[C@H]2O[C@@H]2O[C@@H](CO)[C@H](O)[C@@H](O)[C@@H]2NC)[C@@H](N/C(N)=N\[H])[C@@H]1O [Strep., Streptomycin, reference compound]	–	–	–	–	–	–	–	–	–	–	–	–	–	4 (≈ 6.88 µM)	–	–	–	–
